According to US11155523B2, “Biphenyl compound as CCR2/CCR5 receptor antagonist” (Medshine Discovery Inc., priority 2016, dated 2021):

Experiments:
[1] = Comparative pharmacokinetics study in cynomolgus monkeys; format: in vivo; details: cynomolgus monkey
Excerpt: Experimental Example 3: Comparative Pharmacokinetics Study in Cynomolgus Monkeys
Male cynomolgus monkeys were used as the test animals in this study. The drug concentrations in plasma of the cynomolgus monkeys by intravenous or oral administration of test compound WX047 and reference compound at different time points were quantitatively determined by LC/MS/MS, which were used to evaluate the pharmacokinetic profile of the two test drugs in cynomolgus monkeys.
A clear solution of the test compound was injected into cynomolgus monkeys via t the cephalic or saphenous vein (overnight fasting, 2.5-7 kg), and the test compound was intragastrically administered to the cynomolgus monkeys (overnight fasting, 7-10 weeks old). Approximately 400 μL of blood was collected from the peripheral vein of the animals 0.0833, 0.25, 0.5, 1, 2, 4, 6, 8, 12 and 24 hours after administration, and transferred into an commercial centrifuge tube containing EDTA-K2*2H2O anticoagulation. The plasma was collected by centrifugation at 3000 g for 10 minutes at 4° C. The plasma concentration was determined by LC-MS/MS. The pharmacokinetic parameters were calculated by the non-compartment model linear logarithmic trapezoidal method using WinNonlin™ Version 6.3 (Pharsight, Mountain View, Calif.) pharmacokinetic software.

[2] = molecular target: T1, CYP1A2 (Homo sapiens, UniProt P05177); test: Inhibition of human liver microsomal CYP1A2 (phenacetin probe); format: in vitro ADME; details: human liver microsomes
T1 construct: from tissue; host or cells: human liver microsomes
T1 sequence (P05177 1-516): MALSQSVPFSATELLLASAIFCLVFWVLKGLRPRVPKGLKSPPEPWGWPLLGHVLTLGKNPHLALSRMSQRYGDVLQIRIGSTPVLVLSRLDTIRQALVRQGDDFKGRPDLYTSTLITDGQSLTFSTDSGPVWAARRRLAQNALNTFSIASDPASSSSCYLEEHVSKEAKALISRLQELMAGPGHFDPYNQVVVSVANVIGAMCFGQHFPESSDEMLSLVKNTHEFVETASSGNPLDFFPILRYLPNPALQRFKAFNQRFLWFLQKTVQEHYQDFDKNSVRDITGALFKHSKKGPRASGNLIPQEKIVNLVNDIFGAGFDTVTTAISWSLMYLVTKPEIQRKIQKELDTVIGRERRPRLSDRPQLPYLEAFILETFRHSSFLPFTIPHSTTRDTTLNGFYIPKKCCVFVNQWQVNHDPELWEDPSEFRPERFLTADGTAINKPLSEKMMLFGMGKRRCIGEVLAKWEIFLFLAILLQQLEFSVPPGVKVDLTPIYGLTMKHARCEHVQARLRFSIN
Procedure: (§1) Experimental Example 4 Inhibition Effect on the Activity of Human Liver Microsomal Cytochrome P450 Isoezymes (CYP1A2, CYP2C9, CYP2C19, CYP2D6 and CYP3A4)
(§2) A total of 5 specific probe substrates for CYP's five isozymes, Phenacetin (CYP1A2), Diclofenac (CYP2C9), […] (S)-Mephenytoin, CYP2C19), Dextromethorphan (CYP2D6) and Midazolam (CYP3A4) were incubated with human liver microsomes and test compounds, respectively, and reduced nicotinamide adenine dinucleotide phosphate (NADPH) was added to initiate the reaction. After the reaction, the sample was processed and liquid chromatography tandem mass spectrometry (LC-MS/MS) was used to quantitatively detect the […] metabolites produced by the specific substrate, Acetaminophen and 4′-hydroxydiclofenac, 4′-hydroxymephenytoin, Dextrorphan and 1′-hydroxymidazolam, in order to calculate the corresponding half maximal inhibitory concentration (IC50).

[3] = molecular target: T2, CYP3A4 (Homo sapiens, UniProt P08684); test: Inhibition of human liver microsomal CYP3A4 (midazolam probe); format: in vitro ADME; details: human liver microsomes, probe midazolam
T2 construct: from tissue; host or cells: human liver microsomes
T2 sequence (P08684 whole entry): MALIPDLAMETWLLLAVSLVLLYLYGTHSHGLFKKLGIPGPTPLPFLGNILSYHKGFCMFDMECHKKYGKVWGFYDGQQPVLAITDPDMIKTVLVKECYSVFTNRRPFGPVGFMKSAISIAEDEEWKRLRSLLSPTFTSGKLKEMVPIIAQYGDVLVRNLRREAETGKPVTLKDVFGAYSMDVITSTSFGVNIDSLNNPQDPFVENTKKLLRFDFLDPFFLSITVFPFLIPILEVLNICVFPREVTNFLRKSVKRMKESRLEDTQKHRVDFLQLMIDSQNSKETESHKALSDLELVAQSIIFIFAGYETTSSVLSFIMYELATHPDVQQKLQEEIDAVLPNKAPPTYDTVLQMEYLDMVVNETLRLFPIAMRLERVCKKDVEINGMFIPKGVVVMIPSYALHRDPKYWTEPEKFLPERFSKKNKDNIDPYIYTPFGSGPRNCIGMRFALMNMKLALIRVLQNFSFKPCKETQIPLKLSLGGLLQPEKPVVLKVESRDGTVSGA
Procedure: as §1, §2

[4] = male, plasma, intravenous injection 1 mg/kg

SMILES: CCCCOCCOc1ccc(-c2ccc(OCC)c(/C=C/C(=O)Nc3ccc([S@+]([O-])Cc4c(C)ncn4CC)cc3)c2)cc1 [WX047]
- Area Under a Curve (0-inf) ([1]; intravenous injection 1 mg/kg): 3.149 µM·h
- Area Under a Curve (0-inf/0-last) ([1]; oral 3 mg/kg): 3.678 µM·h
- Peak time ([1]; oral 3 mg/kg): 2.0 h
- Oral plasma system exposure (AUC0-inf) as multiple of the reference compound ([1]; oral, relative to Cenicriviroc): 10.8 times
- Bioavailability as multiple of the reference compound ([1]; relative to Cenicriviroc): 7.6 times
- clearance [1, 4]: 9.11 mL/min/kg
- half-life [1, 4]: 1.66 h
- bioavailability ([1]; male, plasma, oral 3 mg/kg vs intravenous 1 mg/kg): 38.9%
- IC50 [2]: > 50 µM
- IC50 [3]: > 50 µM
